The results in this text go back to patent US8293729B2 (Boehringer Ingelheim International GmbH, priority 2009, dated 2012).

One assay concerns the target T1, human GPR119 receptor (Homo sapiens, UniProt Q8TDV5, S329A/T327A).
T1 construct: N-terminal leader […]; expressed in transfected cells
T1 sequence (Q8TDV5 with tags, fused parts or gaps T327A/S329A): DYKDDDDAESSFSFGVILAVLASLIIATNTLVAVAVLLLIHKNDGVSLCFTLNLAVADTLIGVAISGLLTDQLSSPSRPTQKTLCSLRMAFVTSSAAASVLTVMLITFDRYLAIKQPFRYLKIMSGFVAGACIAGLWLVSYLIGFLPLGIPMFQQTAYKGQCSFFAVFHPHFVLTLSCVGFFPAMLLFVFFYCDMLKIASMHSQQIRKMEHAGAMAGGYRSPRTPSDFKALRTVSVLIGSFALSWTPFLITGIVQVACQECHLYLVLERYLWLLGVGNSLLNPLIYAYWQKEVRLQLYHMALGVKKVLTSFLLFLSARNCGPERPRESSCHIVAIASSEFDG
The assay can be described thus: cAMP assay (LANCE cAMP-384) in HEK293 cells stably expressing mutant human GPR119 receptor. The format is cell-based. Particulars: HEK293, 20 min; single concentration 10 μM; given where no EC50 value could be determined; read-out: % stimulation at 10 μM. On the procedure: Quantitative detection of cAMP accumulation from cells expressing human GPR119 receptor was achieved using Perkin Elmer's LANCE cAMP-384 Kit (Cat#AD0264) according to the manufacturer's protocol. Briefly, HEK293 cells stably expressing a mutant form of the human GPR119 receptor (Methionine 1 replaced with the amino acid sequence […] (SEQ ID NO: 1), and T327 & S329 changed to alanines) were grown to 50-70% confluency in cell culture media (DMEM, 10% heat inactivated Fetal Bovine Serum, 50 I.U./mL penicillin, 50 μg/mL streptomycin, 10 mM HEPES, 20 μg/mL G418 Sulfate). On the day of the assay, GPR119 stable HEK293 cells were lifted from the tissue culture plate and 1000 cells/well were incubated along with various concentrations of test compounds for 20 min at 37° C. Detection Buffer (50mM HEPES, 10mM calcium chloride, 0.35% Triton X-100, 1 mg/mL BSA) containing cAMP-specific antibody was then added to all wells and allowed to equilibrate in the dark for 10 minutes at room temperature. Upon equilibration, Detection Buffer containing europium-labeled cAMP tracer complex was added to all wells and allowed to react for 1 hour at room temperature. After 1 hour, bound europium-labeled cAMP tracer was measured using a Perkin Elmer ViewLux. The quantity of cAMP generated in each well was derived from a standard curve. EC50 was determined using nonlinear regression analysis of the cAMP values over a range of agonist concentration (12 points spanning the range from 30 μM to 100pM).
For some compounds for which no EC50 value could be determined, the efficacy is provided at a single concentration (10 μM) yielding % stimulation values.
On the technique in general: cAMP levels reflect the balance of adenylyl cyclase and phosphodiesterase activity.
As to `CC(C)OC(=O)N1CCC(ON=C2CCN(c3nccc(CO)c3F)CC2)CC1` [Example 2-64], the activation at 10 µM was 79%. For the molecule `CC(C)OC(=O)N1CCC(ON=C2CCN(c3cc(Br)ccn3)CC2)CC1` [Example 2-67], the activation at 10 µM came out at 54%. `CC(C)OC(=O)N1CCC(ON=C2CCN(c3ncc(Cl)cc3F)CC2)CC1` [Example 2-68]: the activation at 10 µM was 63%. As for `CC(C)OC(=O)N1CCC(ON=C2CCN(c3cc(F)c(CN4CCOCC4)cc3F)CC2)CC1` [Example 5-4], the activation at 10 µM is 69%. The same measure, in the same setting: for `CNCc1cc(F)c(N2CCC(=NOC3CCN(C(=O)OC(C)C)CC3)CC2)cc1F` [Example 5-6] the value was 78%.

Staying with this assay, now noted: cAMP accumulation, HEK293 cells stably expressing mutant human GPR119; read-out: EC50.
Broadly, the EC50 is the concentration needed to bring the measured effect to its halfway point. In the case of `CC(C)OC(=O)N1CCC(ON=C2CCN(c3ncc(Br)c(N(C)C)n3)CC2)CC1` [Example 2-54], the EC50 was over 10000 nM.

Consider `CSc1nc(N2CCC(=NOC3CCN(C(=O)OC(C)C)CC3)CC2)ncc1Br` [Example 2-55], for which the concentration for a half-maximal effect (EC50) is over 10000 nM. Still for that read-out and setting: for `COc1nc(N2CCC(=NOC3CCN(C(=O)OC(C)C)CC3)CC2)ncc1Br` [Example 2-56] the value was over 10000 nM. With `CC(C)OC(=O)N1CCC(ON=C2CCN(c3c(F)c(F)c(C(N)=O)c(F)c3F)CC2)CC1` [Example 2-57], the EC50 was determined as 56 nM.

Consider `CC(C)OC(=O)N1CCC(ON=C2CCN(c3ncnc(F)c3F)CC2)CC1` [Example 2-58], for which the half-maximal effective concentration (EC50) stood at 603 nM. Take `CC(C)OC(=O)N1CCC(ON=C2CCN(c3c(C(=O)O)ccnc3Cl)CC2)CC1` [Example 2-59]: the concentration giving a half-maximal response (EC50) is over 10000 nM. On the same count and under the same terms, under `CC(C)OC(=O)N1CCC(ON=C2CCN(c3cc(F)c(S(C)(=O)=O)cc3F)CC2)CC1` [Example 2-60] stands 28 nM.

Take `CC(C)OC(=O)N1CCC(ON=C2CCN(c3cc4[nH]cnc(=O)c4cc3F)CC2)CC1` [Example 2-61]: the half-maximal effective concentration (EC50) is over 10000 nM. For `CC(C)OC(=O)N1CCC(ON=C2CCN(c3cc(F)c([N+](=O)[O-])cc3F)CC2)CC1` [Example 2-62], the EC50 came out at 304 nM.

With `CC(C)OC(=O)N1CCC(ON=C2CCN(c3cc(F)c(N(S(C)(=O)=O)S(C)(=O)=O)cc3F)CC2)CC1` [Example 2-63], the half-maximal effective concentration (EC50) was over 10000 nM. Same read-out and setting: for `Cc1cc(C(=O)O)nc(N2CCC(=NOC3CCN(C(=O)OC(C)C)CC3)CC2)n1` [Example 2-65] the value was over 10000 nM. On the same count and under the same terms, for `CC(C)OC(=O)N1CCC(ON=C2CCN(c3nccc(C(F)(F)F)n3)CC2)CC1` [Example 2-66] the value was over 10000 nM; for `CC(C)OC(=O)N1CCC(ON=C2CCN(c3ncc(F)cc3F)CC2)CC1` [Example 2-69], 1020 nM. As to `CC(C)OC(=O)N1CCC(ON=C2CCN(c3nc(F)ccc3F)CC2)CC1` [Example 2-70], the EC50 came to 3260 nM.

As for `CC(C)OC(=O)N1CCC(ON=C2CCN(c3ccc(F)c(F)n3)CC2)CC1` [Example 2-71], the half-maximal effective concentration (EC50) came out at 2590 nM. As for `CC(C)OC(=O)N1CCC(ON=C2CCN(c3ccncc3F)CC2)CC1` [Example 2-72], the EC50 was 750 nM. For `CC(C)OC(=O)N1CCC(ON=C2CCN(c3nc(Cl)ncc3F)CC2)CC1` [Example 2-73], the EC50 stood at 110 nM.

Consider `CC(C)OC(=O)N1CCC(ON=C2CCN(c3cc(O)ncc3F)CC2)CC1` [Example 2-74], for which the EC50 is over 10000 nM. As to `CC(C)OC(=O)N1CCC(ON=C2CCN(c3nc(F)c(F)cc3F)CC2)CC1` [Example 2-75], the EC50 came to 453 nM. Turning to `Cc1cc(N2CCC(=NOC3CCN(C(=O)OC(C)C)CC3)CC2)c(F)cc1C(N)=O` [Example 2-76], the concentration for a half-maximal effect (EC50) was determined as 534 nM. Same read-out and setting: for `CC(CO)CNC(=O)c1cc(F)c(N2CCC(=NOC3CCN(C(=O)OC(C)C)CC3)CC2)cc1F` (stereo not drawn) [Example 2-77] the value was 47 nM; for `Cc1ncccc1N1CCC(=NOC2CCN(C(=O)OC(C)C)CC2)CC1` [Example 4-1, Isopropyl 4-(2′-Methyl-2,3,5,6-tetrahydro-[1,3′]bipyridinyl-4-ylideneaminooxy)piperidine-1-carboxylate], 4800 nM. As to `CC(C)OC(=O)N1CCC(ON=C2CCN(c3cc(F)c(CN4CCCC4)cc3F)CC2)CC1` [Example 5-1, 4-[1-(2,5-Difluoro-4-pyrrolidin-1-ylmethyl-phenyl)-piperidin-4-ylideneaminooxy]-piperidine-1-carboxylic acid isopropyl ester], the concentration for a half-maximal effect (EC50) was 7830 nM. In the case of `CC(C)OC(=O)N1CCC(ON=C2CCN(c3cc(F)c(CN4CCOC(CC(=O)O)C4)cc3F)CC2)CC1` (stereo not drawn) [Example 5-2], the EC50 stood at 5880 nM. In the case of `CC(C)OC(=O)N1CCC(ON=C2CCN(c3cc(F)c(CN(C)CCO)cc3F)CC2)CC1` [Example 5-3], the half-maximal effective concentration (EC50) is over 10000 nM. The same measure, in the same setting: under `COCCN(C)Cc1cc(F)c(N2CCC(=NOC3CCN(C(=O)OC(C)C)CC3)CC2)cc1F` [Example 5-5] stands over 10000 nM; under `COC(=O)CCNCc1cc(F)c(N2CCC(=NOC3CCN(C(=O)OC(C)C)CC3)CC2)cc1F` [Example 5-7], 1150 nM; under `CC(C)OC(=O)N1CCC(ON=C2CCN(c3cc(F)c(CN(C)C)cc3F)CC2)CC1` [Example 5-8], over 10000 nM. `CC(C)OC(=O)N1CCC(ON=C2CCN(c3cc(F)c(CNCCF)cc3F)CC2)CC1` [Example 5-9]: the concentration giving a half-maximal response (EC50) was determined as 703 nM.

On to `CC(C)OC(=O)N1CCC(ON=C2CCN(c3cc(F)c(CN(C)CCCC(=O)O)cc3F)CC2)CC1` [Example 5-10], for which the half-maximal effective concentration (EC50) is over 10000 nM.

Turning to `CC(C)OC(=O)N1CCC(ON=C2CCN(c3cc(F)c(CNCc4nccs4)cc3F)CC2)CC1` [Example 5-11], the EC50 turned out to be 332 nM. For `CC(C)OC(=O)N1CCC(ON=C2CCN(c3cc(F)c(CN4CCCC4=O)cc3F)CC2)CC1` [Example 6-1, 4-{1-[2,5-Difluoro-4-(2-oxo-pyrrolidin-1-ylmethyl)-phenyl]-piperidin-4-ylideneaminooxy}-piperidine-1-carboxylic acid isopropyl ester], the half-maximal effective concentration (EC50) came to 40 nM. With `CC(C)OC(=O)N1CCC(ON=C2CCN(c3cc(F)c(CNCCC(=O)O)cc3F)CC2)CC1` [Example 7-1, 4-(1-{4-[(2-Carboxy-ethylamino)-methyl]-2,5-difluoro-phenyl}-piperidin-4-ylideneaminooxy)-piperidine-1-carboxylic acid isopropyl ester], the 50% effective concentration (EC50) came to 1150 nM. For the molecule `CC(C)OC(=O)N1CCC(ON=C2CCN(c3cc(F)c(CO)cc3F)CC2)CC1` [Example 10-1, 4-[1-(2,5-Difluoro-4-hydroxymethyl-phenyl)-piperidin-4-ylideneaminooxy]-piperidine-1-carboxylic acid isopropyl ester], the EC50 is 9 nM. As for `CC(=O)OCc1cc(F)c(N2CCC(=NOC3CCN(C(=O)OC(C)C)CC3)CC2)cc1F` [Example 11-1, 4-[1-(4-acetoxymethyl-2,5-difluoro-phenyl)-piperidin-4-ylideneaminooxy]-piperidine-1-carboxylic acid isopropyl ester], the concentration giving a half-maximal response (EC50) worked out at 67 nM. Turning to `CC(C)OC(=O)N1CCC(ON=C2CCN(c3cc(F)c(CS(C)(=O)=O)cc3F)CC2)CC1` [Example 13-1, 4-[1-(2,5-Difluoro-4-methanesulfonylmethyl-phenyl)-piperidin-4-ylideneaminooxy]-piperidine-1-carboxylic acid isopropyl ester], the EC50 was 30 nM. Consider `CC(C)OC(=O)N1CCC(ON=C2CCN(c3cc(F)c(CSCC(=O)O)cc3F)CC2)CC1` [Example 13-2], for which the EC50 came to 2410 nM.
